Values belong to the compound of their own block, whether it stands above or below them.
Key:
Format in all cases: cell-based
[1] = tested on: Wnt activity (SW480 colon carcinoma cells stably expressing the Sp5-Luc reporter gene); assay: Sp5-Luc reporter gene screening assay for Wnt activity in SW480 cells; details: Homo sapiens, 42 h incubation, luminescence
Outline: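 SW480 cells stably carrying an Sp5 promoter (eight TCF/LEF sites)-luciferase reporter were plated overnight in 10% FCS medium. BrightGlo luminescence was normalised to DMSO wells, and IC50 was obtained by four-parameter fit.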

[2] = tested on: primary human fibroblasts derived from IPF patients (LL29 cells); assay: Inhibition of fibrosis (αSMA) in TGF-β1 treated primary human fibroblasts from IPF patients; details: Fibroblast, 96 h, TGF-β1 20 ng/mL, 4 days, % αSMA positive cells
Outline: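 IPF patient-derived LL29 lung fibroblasts in 1% FBS were treated with compound (11 points, 10 μM to 1.87 nM, 0.1% DMSO) and then 20 ng/mL TGF-β1 for 4 days at 37° C. Fraction of SYTOX-negative cells positive for αSMA was quantified by immunofluorescence imaging and normalized to TGF-β1 controls. EC50 came from non-linear regression over triplicate wells.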

[3] = tested on: primary human mesenchymal stem cells (hMSCs); assay: Chondrogenesis induction screen in primary human mesenchymal stem cells; details: 6 days, chondrogenic nodules, dose range 10-2700 nM
Procedure: The above synthesized compounds were screened using primary human mesenchymal stem cells (hMSCs) to determine their ability to induce chondrogenesis (process by which cartilage is developed).
Primary human mesenchymal stem cells (hMSCs) were purchased from Lonza (Walkersville, Md.) and expanded in Mesenchymal Stem Cell Growth Media (Lonza). Cells between passage 3 and 6 were used for the experiments.
Each compound was dissolved in DMSO as a 10 mM stock and used to prepare compound source plates. Serial dilution (1:3, 6-point dose-response curves from 2700 nM to 10 nM) and compound transfer was performed using the ECHO 550 (Labcyte, Sunnyvale, Calif.) into 96-well clear bottom assay plates (Greiner Bio-One) with appropriate DMSO backfill for a final DMSO concentration of 0.03%. hMSCs were plated at 20,000 cells/well in 250 μL/well Incomplete Chondrogenic Induction Medium (Lonza; DMEM, dexamethasone, ascorbate, insulin-transferrin-selenium [ITS supplement], gentamycin-amphotericin [GA-1000], sodium pyruvate, proline and L-glutamine). TGF-β3 (10 ng/mL) was used as a positive control for differentiation while negative control wells were treated with 75 nL DMSO for normalization and calculating EC50 values. Cells were incubated at 37° C. and 5% CO2 for 6 days. To image chondrogenic nodules, the cells were fixed using 4% formaldehyde (Electron Microscopy Sciences), and stained with 2 μg/mL Rhodamine B (Sigma-Aldrich) and 20 μM Nile Red (Sigma-Aldrich) [Johnson K., et.al, A Stem Cell—Based Approach to Cartilage Repair, Science, (2012), 336(6082), 717-721]. The nodules imaged (4 images per well at 4× magnification) by excitation at 531 nm and emission at 625 nm and quantified using the CellInsight CX5 (Thermo Scientific). Number of nodules in each well was normalized to the average of 3 DMSO treated wells on the same plate using Excel (Microsoft Inc.). The normalized averages (fold change over DMSO) of 3 replicate wells for each compound concentration were calculated. Due to solubility limitations of some of the compounds, curve fitting was incomplete leading to inaccurate EC50 determinations.
Using TGF-β3 as a positive control, the concentration of test compounds required to induce equivalent levels of chondrogenesis is reported. In addition, the maximum activity of each compound and the respective dose that each compound reached maximum chondrogenesis activity is reported.

Compound: CC(C)CC(=O)Nc1cncc(-c2ccc3[nH]nc(-c4nc5c(-c6cccc(F)c6)ccnc5[nH]4)c3c2)c1 [Compound 2, N-(5-(3-(7-(3-Fluorophenyl)-3H-imidazo[4,5-b]pyridin-2-yl)-1H-indazol-5-yl)pyridin-3-yl)-3-methylbutanamide]
- IC50 [1]: 2 nM
- EC50 [2]: 0.041 nM
- Conc (nM) of Max. activity [3]: 30 nM

- IC50 [1]: < 1 nM
Compound: CN(C)c1cncc(-c2ccc3[nH]nc(-c4nc5c(-c6cccc(F)c6)ccnc5[nH]4)c3c2)c1 [Compound 7, 5-(3-(7-(3-Fluorophenyl)-3H-imidazo[4,5-b]pyridin-2-yl)-1H-indazol-5-yl)-N,N-dimethylpyridin-3-amine]
- EC50 [2]: 0.066 nM
- Conc (nM) of Max. activity [3]: 100 nM

- IC50 [1]: < 1 nM
Compound: Fc1cccc(-c2ccnc3[nH]c(-c4n[nH]c5ccc(-c6cncc(CN7CCC(F)(F)C7)c6)cc45)nc23)c1 [Compound 25, 2-(5-(5-((3,3-Difluoropyrrolidin-1-yl)methyl)pyridin-3-yl)-1H-indazol-3-yl)-7-(3-fluorophenyl)-3H-imidazo[4,5-b]pyridine]
- EC50 [2]: 0.099 nM
- Conc (nM) of Max. activity [3]: 30 nM

Compound: Nc1cncc(-c2ccc3[nH]nc(-c4nc5c(-c6ccccc6F)ccnc5[nH]4)c3c2)c1 [Compound 55, 5-(3-(7-(2-Fluorophenyl)-3H-imidazo[4,5-b]pyridin-2-yl)-1H-indazol-5-yl)pyridin-3-amine]
- IC50 [1]: 1.8 nM
- EC50 [2]: 0.017 nM
- Conc (nM) of Max. activity [3]: 30 nM

Compound: c1cncc(-c2ccc3[nH]nc(-c4nc5c(-c6cccnc6)ccnc5[nH]4)c3c2)c1 [Compound 82, 7-(Pyridin-3-yl)-2-(5-(pyridin-3-yl)-1H-indazol-3-yl)-3H-imidazo[4,5-b]pyridine]
- IC50 [1]: 3.5 nM
- EC50 [2]: 0.303 nM
- Conc (nM) of Max. activity [3]: 10 nM

Compound: Cc1ccncc1-c1ccc2[nH]nc(-c3nc4c(-c5ccncc5)ccnc4[nH]3)c2c1 [Compound 109, 2-(5-(4-Methylpyridin-3-yl)-1H-indazol-3-yl)-7-(pyridin-4-yl)-3H-imidazo[4,5-b]pyridine]
- IC50 [1]: 13.7 nM
- EC50 [2]: 0.781 nM
- Conc (nM) of Max. activity [3]: 30 nM

Compound: CCCCC(=O)Nc1cncc(-c2ccc3[nH]nc(-c4nc5c(-c6ccccn6)ccnc5[nH]4)c3c2)c1 [Compound 148, N-(5-(3-(7-(Pyridin-2-yl)-3H-imidazo[4,5-b]pyridin-2-yl)-1H-indazol-5-yl)pyridin-3-yl)pentanamide]
- IC50 [1]: 8.1 nM
- EC50 [2]: 0.085 nM
- Conc (nM) of Max. activity [3]: 100 nM

Compound: Cc1cn(-c2ccnc3[nH]c(-c4n[nH]c5ccc(-c6cncc(NC(=O)CC(C)C)c6)cc45)nc23)cn1 [Compound 184, 3-Methyl-N-(5-(3-(7-(4-methyl-1H-imidazol-1-yl)-3H-imidazo[4,5-b]pyridin-2-yl)-1H-indazol-5-yl)pyridin-3-yl)butanamide]
- IC50 [1]: 2.3 nM
- EC50 [2]: 0.142 nM
- Conc (nM) of Max. activity [3]: 300 nM

Compound: CCCC(=O)Nc1cncc(-c2ccc3[nH]nc(-c4nc5c(-c6ccsc6)ccnc5[nH]4)c3c2)c1 [Compound 277, N-(5-(3-(7-(Thiophen-3-yl)-3H-imidazo[4,5-b]pyridin-2-yl)-1H-indazol-5-yl)pyridin-3-yl)butyramide]
- IC50 [1]: 1 nM
- EC50 [2]: 0.016 nM
- Conc (nM) of Max. activity [3]: 30 nM

Compound: CC(C)Nc1cncc(-c2ccc3[nH]nc(-c4nc5c(-c6ccoc6)ccnc5[nH]4)c3c2)c1 [Compound 298, 5-(3-(7-(Furan-3-yl)-3H-imidazo[4,5-b]pyridin-2-yl)-1H-indazol-5-yl)-N-isopropylpyridin-3-amine]
- IC50 [1]: 5 nM
- EC50 [2]: 0.102 nM
- Conc (nM) of Max. activity [3]: 30 nM

Compound: CC(C)(C)C(=O)Nc1cncc(-c2ccc3[nH]nc(-c4nc5c(-c6ccc(F)s6)ccnc5[nH]4)c3c2)c1 [Compound 346, N-(5-(3-(7-(5-Fluorothiophen-2-yl)-3H-imidazo[4,5-b]pyridin-2-yl)-1H-indazol-5-yl)pyridin-3-yl)pivalamide]
- IC50 [1]: 0.4 nM
- EC50 [2]: 0.009 nM
- Conc (nM) of Max. activity [3]: 300 nM

Compound: Cc1ccc(-c2ccnc3[nH]c(-c4n[nH]c5ccc(-c6cncc(NC(=O)C(C)C)c6)cc45)nc23)s1 [Compound 373, N-(5-(3-(7-(5-Methylthiophen-2-yl)-3H-imidazo[4,5-b]pyridin-2-yl)-1H-indazol-5-yl)pyridin-3-yl)isobutyramide]
- IC50 [1]: 6.4 nM
- EC50 [2]: 0.045 nM
- Conc (nM) of Max. activity [3]: 30 nM

Compound: CCCC(=O)Nc1cncc(-c2ccc3[nH]nc(-c4nc5c(-c6cc(F)cc(CNS(C)(=O)=O)c6)ccnc5[nH]4)c3c2)c1 [Compound 433, N-(5-(3-(7-(3-Fluoro-5-(methylsulfonamidomethyl)phenyl)-3H-imidazo[4,5-b]pyridin-2-yl)-1H-indazol-5-yl)pyridin-3-yl)butyramide]
- IC50 [1]: 3 nM
- EC50 [2]: > 10 nM
- Conc (nM) of Max. activity [3]: 2700 nM

Compound: CCCCC(=O)Nc1cncc(-c2ccc3[nH]nc(-c4nc5c(-c6cc(F)cc(NCCN(C)C)c6)ccnc5[nH]4)c3c2)c1 [Compound 460, N-(5-(3-(7-(3-((2-(Dimethylamino)ethyl)amino)-5-fluorophenyl)-3H-imidazo[4,5-b]pyridin-2-yl)-1H-indazol-5-yl)pyridin-3-yl)pentanamide]
- IC50 [1]: 11.6 nM
- EC50 [2]: 0.111 nM
- Conc (nM) of Max. activity [3]: 30 nM

Compound: Fc1cccc(-c2ccnc3[nH]c(-c4n[nH]c5ccc(-c6cn[nH]c6)cc45)nc23)c1 [Compound 1875, 2-(5-(1H-Pyrazol-4-yl)-1H-indazol-3-yl)-7-(3-fluorophenyl)-3H-imidazo[4,5-b]pyridine]
- IC50 [1]: 5 nM
- EC50 [2]: 0.009 nM
- Conc (nM) of Max. activity [3]: 2700 nM

Compound: Oc1cncc(-c2ccc3[nH]nc(-c4nc5c(-c6cccc(F)c6)ccnc5[nH]4)c3c2)c1 [Compound 1885, 5-(3-(7-(3-Fluorophenyl)-3H-imidazo[4,5-b]pyridin-2-yl)-1H-indazol-5-yl)pyridin-3-ol]
- IC50 [1]: 11 nM
- EC50 [2]: 0.009 nM
- Conc (nM) of Max. activity [3]: 100 nM

— US10280166B2, “2-(1H-indazol-3-yl)-3H-imidazo[4,5-B]pyridine and therapeutic uses thereof” (Samumed, LLC, priority 2014, dated 2019)
